# Source: publication PMC6291527, “A Nanostructured Lipid System to Improve the Oral Bioavailability of Ruthenium(II) Complexes for the Treatment of Infections Caused by Mycobacterium tuberculosis” (Frontiers in Microbiology, 2018)
# Marks after values point to notes of the source that are not given here.
# Tests used:
# [1] = test system: M. tuberculosis H37Rv ATCC 27294; experiment: Resazurin Microtiter Assay (REMA), MIC90 against M. tuberculosis H37Rv; conditions: for MIC90 DMSO: complex solubilized in DMSO, mean ± SD; for Standard MIC Pre-determined: repeats Table 2 values, mean ± SD of three assays
# [2] = test system: mouse macrophages (J774A.1); experiment: In vitro cytotoxic activity (resazurin) in macrophages; assay type: cell-based; conditions: complex solubilized in DMSO; J774A.1 macrophages, 24 h
# Description: The cytotoxicity of the complexes solubilized in DMSO and loaded into the NLS was measured in mouse macrophages (J774A.1 ATCCb TIB-67) as described by [Pavan et al. (2010a)]. The cells were incubated at 37°C with 5% CO2 on plates with a surface area of 12.50 cm^2 in 10 ml RPMI (Vitrocell®, Campinas, SP, Brazil) supplemented with 10% fetal bovine serum, gentamicin sulfate (50 mg l^-1) and amphotericin B (2 mg l^-1). This technique consists of collecting the cells using a scraper, centrifuging (2000 rpm for 5 min), counting the number of cells in a Newbauer chamber, and then adjusting the concentration to 3.4 × 10^5 cells ml^-1 in RPMI. Next, 200 μl suspension was deposited into each well of a 96-well microplate and incubated at 37°C in an atmosphere of 5% CO2 for 24 h to allow the cells to attach to the plate. Dilutions of the test compounds were prepared to obtain concentrations from 500 to 1.95 μg ml^-1. […] The cytotoxicity of the compounds was determined by adding 30 μl developer of resazurin and read after a 6-h incubation. The reading was performed in a microplate Cytation 3 (Biotek®, Winooski, VT, United States) reader using excitation and emission filters at wavelengths of 530 and 590 nm, respectively. The cytotoxicity (IC50) was defined as the highest concentration of compound inhibiting the growth of at least 50% of the cells and was obtained from non-linear regression using GraphPad Prism 7.0 for Windows.
compound,measurement,setting,value
[Ru(pic)(dppb)(bipy)]PF6 [SCAR1],MIC90 DMSO,[1],1.18 ± 0.08^a μg mL^-1
same,Standard MIC Pre-determined,[1],1.18 ± 0.08 µg/mL
same,IC50 DMSO,[2],22.26 ± 1.85^a μg mL^-1
[Ru(pic)(dppb)(phen)]PF6 [SCAR4],MIC90 DMSO,[1],1.34 ± 0.08^a μg mL^-1
same,Standard MIC Pre-determined,[1],1.34 ± 0.08 µg/mL
same,IC50 DMSO,[2],7.57 ± 0.13^a μg mL^-1
"Cc1ccnc(-c2cc(C)ccn2)c1.F[P-](F)(F)(F)(F)F.O=C([O-])c1ccccn1.[Ru+2].c1ccc(P(CCCCP(c2ccccc2)c2ccccc2)c2ccccc2)cc1 [SCAR2, [Ru(pic)(dppb)(Me-bipy)]PF6]",MIC90 DMSO,[1],1.08 ± 0.12^a μg mL^-1
same,Standard MIC Pre-determined,[1],1.08 ± 0.12 µg/mL
same,IC50 DMSO,[2],6.51 ± 0.67^a μg mL^-1
"F[P-](F)(F)(F)(F)F.O=C([O-])c1ccccn1.[Ru+2].c1ccc(P(CCP(c2ccccc2)c2ccccc2)c2ccccc2)cc1.c1ccc(P(CCP(c2ccccc2)c2ccccc2)c2ccccc2)cc1 [SCAR5, cis-[Ru(pic)(dppe)2]PF6]",MIC90 DMSO,[1],1.32 ± 0.03^a μg mL^-1
same,Standard MIC Pre-determined,[1],1.32 ± 0.03 µg/mL
same,IC50 DMSO,[2],3.88 ± 0.98^a μg mL^-1
[Ru(pic)(dppe)(phen)]PF6 [SCAR7],MIC90 DMSO,[1],0.98 ± 0.05^a μg mL^-1
same,Standard MIC Pre-determined,[1],0.98 ± 0.05 µg/mL
same,IC50 DMSO,[2],14.36 ± 1.57^a μg mL^-1
